Laboratory results: patent US8540966B2, “Contrast agents endowed with high relaxivity” (Bracco Imaging S.p.A., priority 2004, dated 2013)

What was measured:
[1] = Relaxivity determination (r1p) at 20 MHz, 298K, pH 7; type: physicochemical
Method: As far as the relaxation enhancement property is concerned, a paramagnetic Gd(III) complex is characterized by its relaxivity (r1p) which represents the increase of the proton relaxation rate of an aqueous solution of the Gd(III) complex in comparison to the proton relaxation rate of neat water (R1°). The relaxivity is usually measured at 298K and 20 MHz (0.5 T).
In order to best evaluate the relaxivity properties and the parameters affecting the relaxivity of the agents of the invention, some comparative tests have been performed. In a first experiment, the relaxivity of a number of Gd-based chelated compounds having different molecular weight, all derived from the following [Gd(DTPA-monophosphonate)]^3− basic backbone structure (r1p at 20 MHz and 298K: 6.1 mM^−1 s^−1) of formula
Tested compounds include the Gd-complex of the chelating compounds 1b and 2b of the invention (hereinafter Gd-1b and Gd-2b) as well as a number of different derivatives of the aforementioned backbone moiety selected in order to cover a range of molecular weights of up to about 1800 Dalton. The relaxivity of all of the tested compounds were measured at 298K and 20 MHz and pH 7. The obtained values, listed in table 5 below (together with the structure of the compounds) have also been plotted against the MW of the complexes (see FIG. 1).
A second experiment was performed to test the relaxivity of different compounds of the invention, marketed NSA, known LDA and other systems, all containing one coordinated water molecule (q=1). The data were registered at 298K and 20 MHz and pH=7, and plotted against their corresponding MW. Relaxivity data relating to LDA P760 and P792 (LDA contrast agents) are based on literature cited below.
(§1) Conversely, the relaxivity improvement shown by the blood pool agent rapidly falls dawn over the same range of magnetic field strength. In addition to the above, please find below as per table 7, other relaxivity values, measured as above indicated, for some other representative compounds of the invention.

[2] = 1/T1 NMRD profiles: relaxivity over a range of magnetic field strength; type: physicochemical; conditions: from 0.2 to 3 MHz; 25° C., 1 mM aqueous solution (FIG. 6)
Method: As an example, the relaxivity profile of the gadolinium complex of the chelating ligand of the invention 2b (hereinafter referred to as Gd-2b), in the above magnetic field range, has been compared with that of a marketed NSA, i.e. Magnevist®, and that of a blood pool agent, i.e. the macromolecular adduct between Gd-DTPA(BOM)3 and BSA (Bovine Serum Albumin) (FIG. 6).
The corresponding profile for the above blood pool agent is quite different.
A further test was performed in which the relaxivity values r1p, shown by the compounds of the invention as measured at 20 MHz and 298K, were plotted against the molecular reorientational values τR of the same compounds. The stability of the relaxivity properties shown by the compounds of the invention was tested. In a first experiment, the 1/T1 NMRD profiles for some compounds of the invention were acquired over a range of magnetic field strengths ranging from 0.01 to 130 MHz. […]
as §1

[3] = 298K, 20 MHz, pH 7, q=1 Gd complexes derived from the DTPA-monophosphonate backbone (Table 5)
[4] = 298K, 20 MHz, pH=7, q=1 complexes (Table 6)
[5] = measured as above indicated: 298K, 20 MHz (Table 7)

For `O=C(O)CN(CCN(CCN(CC(=O)O)[C@@H](Cc1ccccc1)C(=O)O)CP(=O)(O)O)[C@@H](Cc1ccccc1)C(=O)O` [B 22606], which “R1p (relaxivity)” value [1, 3] is on record?
Its value is 7.7 mM⁻¹ s⁻¹.

For `O=C(O)CN(CCN(CCN(CC(=O)O)[C@@H](COCc1ccccc1)C(=O)O)CP(=O)(O)O)[C@@H](COCc1ccccc1)C(=O)O` [B 22666], which “R1p (relaxivity)” value [1, 3] is on record?
Its value is 7.9 mM⁻¹ s⁻¹.

For `O=C(O)CN(CCN(CCN(CC(=O)O)[C@@H](Cc1c[nH]c2ccccc12)C(=O)O)CP(=O)(O)O)C(Cc1c[nH]c2ccccc12)C(=O)O` (stereo partly drawn) [B 22836], which “R1p (relaxivity)” value [1, 3] is on record?
Its value is 7.9 mM⁻¹ s⁻¹.

Which “R1p (relaxivity)” value [1, 4] does the source give for `O=C(O)CN1CCN(CC(=O)O)CCN(C(COCc2ccccc2)C(=O)O)CCN(CC(=O)O)CC1` (stereo not drawn) [Compound B19106] here?
Its value is 5.5 mM⁻¹ s⁻¹.

Which “R1p (relaxivity)” value [1, 4] does the source give for `O=C(O)CN1CCN(C(COCc2ccccc2)C(=O)O)CCN(CC(=O)O)CCN(C(COCc2ccccc2)C(=O)O)CC1` (stereo not drawn) [Compound B19236] here?
The value was 6.5 mM⁻¹ s⁻¹.

For `O=C(O)CN1CCN(C(COCc2ccccc2)C(=O)O)CCN(C(COCc2ccccc2)C(=O)O)CCN(C(COCc2ccccc2)C(=O)O)CC1` (stereo not drawn) [Compound B19406], which “R1p (relaxivity)” value [1, 4] is on record?
The value was 7.5 mM⁻¹ s⁻¹.

With `O=C(O)CCC(C(=O)O)N1CCN(Cc2cccc(C(=O)NCC(CNC(=O)C(O)C(O)C(O)C(O)CO)(CNC(=O)C(O)C(O)C(O)C(O)CO)CNC(=O)C(O)C(O)C(O)C(O)CO)c2)CCN(C(CCC(=O)O)C(=O)O)CCN(C(CCC(=O)O)C(=O)O)CC1` (stereo not drawn) [Gd-1d] as the compound, how does the “R1p (relaxivity)” value [1, 5] read?
Its value is 24 mM⁻¹ s⁻¹.

For `O=C(CC[C@@H](C(=O)O)N1CCN([C@@H](CCC(=O)NC(COC2OC(CO)C(O)C(O)C2O)(COC2OC(CO)C(O)C(O)C2O)COC2OC(CO)C(O)C(O)C2O)C(=O)O)CCN([C@@H](CCC(=O)NC(COC2OC(CO)C(O)C(O)C2O)(COC2OC(CO)C(O)C(O)C2O)COC2OC(CO)C(O)C(O)C2O)C(=O)O)CCN([C@@H](CCC(=O)NC(COC2OC(CO)C(O)C(O)C2O)(COC2OC(CO)C(O)C(O)C2O)COC2OC(CO)C(O)C(O)C2O)C(=O)O)CC1)NC(COC1OC(CO)C(O)C(O)C1O)(COC1OC(CO)C(O)C(O)C1O)COC1OC(CO)C(O)C(O)C1O` (stereo partly drawn) [Gd-7c], which “R1p (relaxivity)” value [1, 5] is on record?
The value was 20.4 mM⁻¹ s⁻¹.

For `CC1(N(CC(=O)O)CC(=O)O)CN(C(CCC(=O)N(CCN(CCC(=O)NC(CO)(CO)CO)CCC(=O)NC(CO)(CO)CO)CCN(CCC(=O)NC(CO)(CO)CO)CCC(=O)NC(CO)(CO)CO)C(=O)O)CCN(C(CCC(=O)N(CCN(CCC(=O)NC(CO)(CO)CO)CCC(=O)NC(CO)(CO)CO)CCN(CCC(=O)NC(CO)(CO)CO)CCC(=O)NC(CO)(CO)CO)C(=O)O)C1` (stereo not drawn) [Gd-15a], which “R1p (relaxivity)” value [1, 5] is on record?
Its value is 16.7 mM⁻¹ s⁻¹.

With `O=C(O)CN1CCN(CC(=O)O)CCN(CC(=O)O)CCN(CC(=O)O)CC1` [Gd-DOTA] as the compound, how does the “R1p (relaxivity)” value [1, 4] read?
Its value is 4.7 mM⁻¹ s⁻¹.

With `O=C(O)CN(CCN(CC(=O)O)CC(=O)O)CCN(CC(=O)O)CC(=O)O` [Gd-DTPA] as the compound, how does the “R1p (relaxivity)” value [1, 4] read?
The value was 4.7 mM⁻¹ s⁻¹.

Which “relaxivity profile versus field strength” value [2] does the source give for Gd-DTPA here?
Its value is “quite stable though very low”.
